Where two headings read alike, the source gives them in different places.
Columns and labels:
CBP/p300 [1] = target: CBP/p300; set-up: method as in ref 10 (suppl.); details: ref 10 (suppl.); read-out: BRET (KD (nM) column); cited from earlier work
CBP/p300 over BRD4 = details: cited from earlier work
CBP/p300 [2] = target: CBP/p300; set-up: method as in ref 10 (suppl.); details: ref 10 (suppl.); read-out: TR-FRET (KD (nM) column); cited from earlier work
GCN5L2 = GCN5L2 (Homo sapiens, UniProt Q92830); assay: Histone acetyltransferase (HAT) activity assay; assay type: biochemical;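 further: selectivity screen of BRD probe compounds across a panel of histone acetyltransferases, HAT activity in % with compound at 1 or 10 µM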
MYST1 = target: T1, MYST1 (Homo sapiens, UniProt Q9H7Z6); assay: Histone acetyltransferase (HAT) activity assay; assay type: biochemical;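 further: selectivity screen across a panel of histone acetyltransferases, with compounds tested at 1 and 10 µM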
T1 sequence (Q9H7Z6 1-458): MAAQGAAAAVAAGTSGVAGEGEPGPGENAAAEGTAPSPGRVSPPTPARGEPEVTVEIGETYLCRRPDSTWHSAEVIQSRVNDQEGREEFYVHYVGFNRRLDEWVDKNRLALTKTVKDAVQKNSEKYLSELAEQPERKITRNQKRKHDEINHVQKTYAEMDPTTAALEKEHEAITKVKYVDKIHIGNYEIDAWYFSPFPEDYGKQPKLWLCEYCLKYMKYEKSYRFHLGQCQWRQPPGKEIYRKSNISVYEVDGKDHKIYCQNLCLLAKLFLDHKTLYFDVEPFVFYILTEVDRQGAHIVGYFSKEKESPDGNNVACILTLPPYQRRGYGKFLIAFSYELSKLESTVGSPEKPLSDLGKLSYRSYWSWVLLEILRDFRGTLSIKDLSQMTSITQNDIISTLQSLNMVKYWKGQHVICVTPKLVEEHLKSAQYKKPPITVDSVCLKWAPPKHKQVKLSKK

HAT1 = target: T2, HAT1 (Homo sapiens, UniProt O14929); assay: Histone acetyltransferase (HAT) activity assay; assay type: biochemical;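 further: HAT selectivity screen of BRD probe compounds, enzyme activity in % measured with compound at 1 µM and 10 µM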
T2 sequence (O14929 1-419): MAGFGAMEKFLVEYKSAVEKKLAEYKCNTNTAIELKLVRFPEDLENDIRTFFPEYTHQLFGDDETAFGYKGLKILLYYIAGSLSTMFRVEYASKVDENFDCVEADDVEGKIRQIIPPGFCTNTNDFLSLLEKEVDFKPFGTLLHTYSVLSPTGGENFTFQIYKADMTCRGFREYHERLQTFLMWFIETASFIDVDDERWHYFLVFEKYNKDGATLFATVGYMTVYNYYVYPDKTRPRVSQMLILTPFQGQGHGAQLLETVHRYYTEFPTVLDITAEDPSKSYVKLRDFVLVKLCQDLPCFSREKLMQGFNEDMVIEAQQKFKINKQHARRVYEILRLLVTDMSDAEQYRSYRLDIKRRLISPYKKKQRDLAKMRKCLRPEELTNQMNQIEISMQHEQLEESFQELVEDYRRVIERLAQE

EP300 = EP300 (Homo sapiens, UniProt Q09472); assay: Histone acetyltransferase (HAT) activity assay; assay type: biochemical;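 further: selectivity screen of bromodomain probe compounds against histone acetyltransferases, with enzyme activity given in percent for compounds tested at 1 and 10 µM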
Chain of EP300 (Q09472 whole entry, species assumed): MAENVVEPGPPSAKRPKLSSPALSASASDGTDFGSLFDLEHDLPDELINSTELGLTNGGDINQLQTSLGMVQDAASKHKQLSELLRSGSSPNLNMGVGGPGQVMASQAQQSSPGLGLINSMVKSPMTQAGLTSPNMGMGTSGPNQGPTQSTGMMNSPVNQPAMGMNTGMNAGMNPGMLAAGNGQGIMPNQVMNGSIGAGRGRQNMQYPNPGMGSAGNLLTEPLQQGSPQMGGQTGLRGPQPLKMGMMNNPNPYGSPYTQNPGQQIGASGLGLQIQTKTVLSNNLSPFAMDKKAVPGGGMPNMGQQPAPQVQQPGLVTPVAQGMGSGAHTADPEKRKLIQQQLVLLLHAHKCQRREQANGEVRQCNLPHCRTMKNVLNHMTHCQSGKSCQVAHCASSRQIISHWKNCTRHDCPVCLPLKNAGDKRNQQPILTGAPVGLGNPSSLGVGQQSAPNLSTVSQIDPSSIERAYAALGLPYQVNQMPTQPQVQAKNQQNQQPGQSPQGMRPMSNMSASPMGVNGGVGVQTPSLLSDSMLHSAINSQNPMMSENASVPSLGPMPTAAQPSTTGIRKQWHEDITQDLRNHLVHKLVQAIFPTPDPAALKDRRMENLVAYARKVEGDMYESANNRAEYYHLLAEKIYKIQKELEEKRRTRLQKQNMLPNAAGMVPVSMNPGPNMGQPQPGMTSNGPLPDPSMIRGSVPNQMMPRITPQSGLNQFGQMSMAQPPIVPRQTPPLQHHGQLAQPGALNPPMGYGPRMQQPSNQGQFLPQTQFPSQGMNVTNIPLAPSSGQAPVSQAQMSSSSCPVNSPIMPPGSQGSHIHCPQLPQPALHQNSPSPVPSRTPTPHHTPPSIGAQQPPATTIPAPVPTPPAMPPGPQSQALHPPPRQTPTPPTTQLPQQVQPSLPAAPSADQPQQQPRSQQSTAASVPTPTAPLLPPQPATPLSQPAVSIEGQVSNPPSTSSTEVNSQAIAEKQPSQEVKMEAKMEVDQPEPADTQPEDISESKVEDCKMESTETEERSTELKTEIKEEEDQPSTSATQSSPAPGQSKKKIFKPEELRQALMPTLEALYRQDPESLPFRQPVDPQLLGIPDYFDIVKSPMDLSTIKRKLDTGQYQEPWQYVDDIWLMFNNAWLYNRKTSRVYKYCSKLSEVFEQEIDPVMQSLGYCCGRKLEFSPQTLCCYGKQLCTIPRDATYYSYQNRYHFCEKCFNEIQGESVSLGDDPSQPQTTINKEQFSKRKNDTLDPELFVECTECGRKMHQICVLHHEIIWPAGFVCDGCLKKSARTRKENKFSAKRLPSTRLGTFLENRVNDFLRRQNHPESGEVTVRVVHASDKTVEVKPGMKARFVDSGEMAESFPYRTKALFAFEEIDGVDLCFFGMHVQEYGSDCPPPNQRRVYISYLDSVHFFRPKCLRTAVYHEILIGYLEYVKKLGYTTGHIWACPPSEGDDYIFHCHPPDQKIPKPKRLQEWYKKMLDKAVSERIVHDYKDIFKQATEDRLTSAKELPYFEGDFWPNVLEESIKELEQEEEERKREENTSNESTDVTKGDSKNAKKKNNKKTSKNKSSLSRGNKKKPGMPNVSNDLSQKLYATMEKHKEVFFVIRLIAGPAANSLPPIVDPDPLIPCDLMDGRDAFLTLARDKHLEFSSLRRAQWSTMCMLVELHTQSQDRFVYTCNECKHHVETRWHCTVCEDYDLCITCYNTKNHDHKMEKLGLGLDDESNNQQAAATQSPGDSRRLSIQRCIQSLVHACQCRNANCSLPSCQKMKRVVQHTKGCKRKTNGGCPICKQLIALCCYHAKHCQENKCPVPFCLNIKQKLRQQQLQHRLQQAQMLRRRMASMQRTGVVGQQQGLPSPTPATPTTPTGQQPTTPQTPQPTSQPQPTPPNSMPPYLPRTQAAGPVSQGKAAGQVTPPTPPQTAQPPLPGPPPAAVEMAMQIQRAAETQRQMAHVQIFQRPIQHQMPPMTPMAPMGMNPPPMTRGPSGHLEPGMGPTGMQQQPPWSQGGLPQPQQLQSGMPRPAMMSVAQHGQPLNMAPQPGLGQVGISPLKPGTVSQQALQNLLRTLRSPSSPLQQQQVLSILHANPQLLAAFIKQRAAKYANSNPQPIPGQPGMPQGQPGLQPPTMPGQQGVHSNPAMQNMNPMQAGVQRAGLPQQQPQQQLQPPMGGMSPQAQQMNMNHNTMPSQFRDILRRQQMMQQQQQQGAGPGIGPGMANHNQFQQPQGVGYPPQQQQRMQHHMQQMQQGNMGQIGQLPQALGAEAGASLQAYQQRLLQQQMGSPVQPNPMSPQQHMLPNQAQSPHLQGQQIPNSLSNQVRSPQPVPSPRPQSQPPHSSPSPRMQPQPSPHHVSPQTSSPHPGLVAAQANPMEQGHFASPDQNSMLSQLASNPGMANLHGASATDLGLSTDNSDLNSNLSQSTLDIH

three TNBC lines = assay: Combinatorial screen of BRD inhibitors with or without BAY-876 (confluency); assay type: cell-based, human; details: 3 μM probe + 3 μM BAY-876
Protocol: Fig. 6 BRD inhibitors leverage metabolic adaptations induced by glucose transporter I (GLUT1) inhibition in TNBC. a BRD inhibitor screening across ten TNBC cell lines. Cells were treated with indicated BRD inhibitors at 3 μM for 7 days. Confluency was measured using an IncuCyte ZOOM live cell imaging device. Data shown are mean ± s.d. of n = 4 independent cell culture grown and treated cells. A two-sided Student’s t test was used to derive the p-values. b SLC2A1 gene expression in the The Cancer Genome Atlas (TCGA) breast datasets. The cohorts were divided into TNBCs (red) and non-TNBCs (blue) according to PAM50 classification. Gene expression is reported as median-centered expression log2 values. The number of patients (n) per group is indicated. P-values were determined using a Wilcoxon's rank-sum test. c Glucose uptake in MDA-MB-436 cells in response to BAY-876 treatment relative to vehicle. MDA-MB-436 cells were treated with dimethyl sulfoxide (DMSO) or 3 µM BAY-876 for 5 days. Graph indicates mean, error bars denote s.d. from three independent assays and p-value was computed using the Benjamini-Hochberg t test; ***p < 0.001. d Effects of BAY-876 treatment on the intracellular acetyl-CoA level. Graph indicates mean, error bars denote s.d. from three independent assays and p-value was computed using the Benjamini-Hochberg t test; ***p < 0.001. e Effects of BAY-876 treatment on intracellular NAD^+/NADH level. Graph indicates the mean, error bars denote s.d. from three independent assays and p-value computed using the Benjamini-Hochberg t test; **p < 0.01. f Immunoblot analysis of H3 and H4 acetylation in MDA-MB-436 cells before and after BAY-876 treatment. P-value computed using the Benjamini-Hochberg t test; ***p < 0.001. g Cell growth effects of BAY-876 treatment on three representative cell lines. n.s. not significant. h Combinatorial screening of BRD inhibitors with or without 3 μM BAY-876 across ten TNBC cell lines. Cell confluency was obtained from the endpoint Incucyte scanning. (Left) Heatmap of the combinatorial screening results; (Right) Cell confluency after treatment with three potential BRDi candidates at 3 μM in the presence or absence of 3 μM BAY-876 in three representative cell lines. Graph indicates mean, error bars denote s.d. from three independent assays and p-values were computed using the Benjamini-Hochberg t test; **p < 0.01; ***p < 0.001. Raw data images are available in Supplementary Fig. 4
TNBC cell lines were seeded in sterile, transparent 384-well plates at 500 cells per well in 50 µl media. Chemical probes were delivered in dimethyl sulfoxide (DMSO). Cell confluency at 7 days was evaluated using an Incucyte ZOOM live cell imaging device (Essen Bioscence) and analyzed with the Incucyte ZOOM (2016A) software based on phase contrast image.

MYST3 = MYST3 (Homo sapiens, UniProt Q92794); assay: Histone acetyltransferase (HAT) activity assay; assay type: biochemical;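 further: selectivity screen of bromodomain probe compounds across a panel of histone acetyltransferases, read out as enzyme activity in %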
Chain of MYST3 (Q92794 whole entry, species assumed): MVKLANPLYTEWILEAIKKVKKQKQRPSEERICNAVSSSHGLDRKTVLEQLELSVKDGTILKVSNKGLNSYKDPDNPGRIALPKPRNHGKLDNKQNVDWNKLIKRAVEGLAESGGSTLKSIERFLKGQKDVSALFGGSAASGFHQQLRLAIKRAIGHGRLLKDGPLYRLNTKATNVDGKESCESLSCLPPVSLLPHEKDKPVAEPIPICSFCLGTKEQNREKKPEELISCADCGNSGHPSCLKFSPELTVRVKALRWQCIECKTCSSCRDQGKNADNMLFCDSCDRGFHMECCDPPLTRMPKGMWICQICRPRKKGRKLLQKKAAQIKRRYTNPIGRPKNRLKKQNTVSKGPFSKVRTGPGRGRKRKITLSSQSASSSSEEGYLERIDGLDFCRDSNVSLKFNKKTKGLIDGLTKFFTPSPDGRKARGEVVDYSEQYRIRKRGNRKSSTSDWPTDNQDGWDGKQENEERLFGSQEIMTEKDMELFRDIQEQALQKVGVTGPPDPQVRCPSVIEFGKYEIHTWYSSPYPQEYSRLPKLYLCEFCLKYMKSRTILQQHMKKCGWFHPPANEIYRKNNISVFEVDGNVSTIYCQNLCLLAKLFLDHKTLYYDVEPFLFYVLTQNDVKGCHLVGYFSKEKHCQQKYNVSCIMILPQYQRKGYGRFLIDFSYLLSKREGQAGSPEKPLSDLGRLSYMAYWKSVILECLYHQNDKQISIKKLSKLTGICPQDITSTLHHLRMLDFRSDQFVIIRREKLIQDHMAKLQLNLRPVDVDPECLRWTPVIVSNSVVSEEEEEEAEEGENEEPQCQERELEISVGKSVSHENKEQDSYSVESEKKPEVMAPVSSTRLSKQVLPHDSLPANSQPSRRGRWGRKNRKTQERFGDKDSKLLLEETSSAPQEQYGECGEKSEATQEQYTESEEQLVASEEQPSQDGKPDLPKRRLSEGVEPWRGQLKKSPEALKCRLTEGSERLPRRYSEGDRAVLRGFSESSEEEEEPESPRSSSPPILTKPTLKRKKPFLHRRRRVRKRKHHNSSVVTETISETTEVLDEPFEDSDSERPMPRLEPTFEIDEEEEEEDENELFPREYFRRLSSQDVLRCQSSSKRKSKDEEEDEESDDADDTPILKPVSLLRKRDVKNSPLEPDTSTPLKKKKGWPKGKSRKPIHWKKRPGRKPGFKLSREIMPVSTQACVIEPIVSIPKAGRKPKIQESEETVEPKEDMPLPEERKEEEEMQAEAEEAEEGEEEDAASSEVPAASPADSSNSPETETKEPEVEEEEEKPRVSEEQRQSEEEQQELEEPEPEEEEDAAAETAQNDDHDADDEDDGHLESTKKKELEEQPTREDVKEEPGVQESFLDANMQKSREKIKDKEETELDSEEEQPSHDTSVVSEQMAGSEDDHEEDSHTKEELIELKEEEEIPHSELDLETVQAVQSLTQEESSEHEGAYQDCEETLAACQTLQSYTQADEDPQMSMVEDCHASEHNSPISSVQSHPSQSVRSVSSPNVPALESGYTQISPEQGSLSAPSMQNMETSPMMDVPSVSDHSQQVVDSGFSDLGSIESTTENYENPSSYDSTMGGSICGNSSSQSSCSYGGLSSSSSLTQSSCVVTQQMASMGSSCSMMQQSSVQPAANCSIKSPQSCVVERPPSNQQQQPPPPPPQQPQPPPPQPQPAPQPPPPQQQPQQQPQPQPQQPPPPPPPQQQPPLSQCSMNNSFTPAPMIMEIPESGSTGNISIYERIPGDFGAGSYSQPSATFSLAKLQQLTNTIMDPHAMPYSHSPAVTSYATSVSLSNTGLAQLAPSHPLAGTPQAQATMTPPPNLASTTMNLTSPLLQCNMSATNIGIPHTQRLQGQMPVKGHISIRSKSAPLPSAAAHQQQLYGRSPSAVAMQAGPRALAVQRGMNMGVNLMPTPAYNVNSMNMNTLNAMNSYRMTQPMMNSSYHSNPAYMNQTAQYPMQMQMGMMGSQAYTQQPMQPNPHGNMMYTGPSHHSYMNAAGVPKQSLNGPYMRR

Row | HATs Activity (%) (GCN5L2; 1µM) | HATs Activity (%) (GCN5L2; 10µM) | HATs Activity (%) (MYST1; 1µM) | HATs Activity (%) (MYST1; 10µM) | HATs Activity (%) (HAT1; 1µM) | HATs Activity (%) (HAT1; 10µM) | HATs Activity (%) (EP300; 1µM) | HATs Activity (%) (EP300; 10µM) | HATs Activity (%) (MYST3; 1µM) | HATs Activity (%) (MYST3; 10µM) | Compound | Kd (CBP/p300 [1]) | selectivity over BRD4 for CBP/p300 (CBP/p300 over BRD4) | Kd (CBP/p300 [2]) | combination effect with BAY-876 across the three cell lines (three TNBC lines) | viability in combination with BAY-876 (three TNBC lines)
1 |  |  |  |  |  |  |  |  |  |  | CNC(=O)N1CCc2c(c(N3CCCc4cc(-c5cnn(C)c5)c(C(F)F)cc43)nn2C2CCOCC2)C1 [GNE-781] | 6.2 nM | 650 fold | 0.94 nM |  | 
2 | 104% | 102% | 104% | 104% | 103% | 101% | 96% | 99% | 101% | 99% | CCn1cc(-c2cccc(C(F)(F)F)c2)c2sc(C(=N)NC3CCS(=O)(=O)CC3)cc2c1=O [I-BRD9] |  |  |  | efficacy in only one of the three tested TNBC lines | significant decrease in viability

— publication PMC6478789, “A chemical toolbox for the study of bromodomains and epigenetic signaling” (Nature Communications, 2019)
